In US9605026B2, “Hydrogen-bond surrogate peptides and peptidomimetics for p53 reactivation” (New York University, priority 2013, dated 2017) one finds enhancement of apoptosis data, which are given here for one substance.

For the assay, the system named is UMSCC47 cells. As to the kind of experiment: Apoptosis (Annexin V FACS) in UMSCC47 cells. To be noted: UMSCC47, 10 μM, 24 hours, vs vehicle. In kind it is cell-based, human. Here is the method: FIG. 6A is a western blot showing total and acetylated p53 levels. UMSCC47 cells were treated with control (vehicle), CH1iB (10 μM), cis-platinum (10 μM), or CH1iB (10 μM) and cis-platinum (10 μM) for 24 hours. Cell lysates were immunoblotted with anti-p53 or anti-acetylated[K382]-p53 antibody. FIG. 6B is a graph of p53 transcriptional activity. UMSCC47 cells were co-transfected with a p53 Firefly luciferase reporter plasmid and a control Renilla luciferase plasmid. After 24 hours, cells were treated with control (vehicle), CH1iB (10 μM), cis-platinum (10 μM), or CH1iB (10 μM) and cis-platinum (10 μM) for 24 hours. Firefly luciferase activity was normalized to Renilla luciferase activity to control for transfection efficiency. […] UMSCC47 cells were treated with control (vehicle), CH1iB (10 μM), cis-platinum (10 μM), or CH1iB (10 μM) and cis-platinum (10 μM) for 24 hours. mRNA expression was determined using qPCR with validated TaqMan assays. […] FACS was used to quantitate Annexin V-positive apoptotic cells (left panel). […] Tumorsphere formation efficiency was calculated as the number of tumorspheres (≧50 μm in diameter) formed in 7 days divided by the original number of cells seeded. Tumorsphere diameter was measured using NIS-Elements software. […]
Cell proliferation was assessed using the MTT reagent (Roche Molecular Biochemicals, Nutley, N.J.) to detect metabolic active cells. […]

In the case of “XELA*RALDQ-NH2 (ELXRALDQ; HBS: 4-pentenoic acid, N-allylalanine; C-terminal amide; CH1iB) [X 4-pentenoic acid, A* N-allylalanine]”, the enhancement of apoptosis came out at 353%.
